Where two headings read alike, the source gives them in different places.
Key:
Format in all cases: cell-based
NR2F6 = molecular target: T1, NR2F6 (Homo sapiens, UniProt P10588); test: NR2F6 agonist screening, Firefly signal cmpd/DMSO; details: for Firefly, cmpd/DMSO repeat 1 / Firefly, cmpd/DMSO repeat 2: first set screening, 10 μM; for Firefly F4, cmpd/DMSO (mean): Table 14
T1 construct: expressed in transfected cells; also transient transfection
T1 sequence (P10588 1-404): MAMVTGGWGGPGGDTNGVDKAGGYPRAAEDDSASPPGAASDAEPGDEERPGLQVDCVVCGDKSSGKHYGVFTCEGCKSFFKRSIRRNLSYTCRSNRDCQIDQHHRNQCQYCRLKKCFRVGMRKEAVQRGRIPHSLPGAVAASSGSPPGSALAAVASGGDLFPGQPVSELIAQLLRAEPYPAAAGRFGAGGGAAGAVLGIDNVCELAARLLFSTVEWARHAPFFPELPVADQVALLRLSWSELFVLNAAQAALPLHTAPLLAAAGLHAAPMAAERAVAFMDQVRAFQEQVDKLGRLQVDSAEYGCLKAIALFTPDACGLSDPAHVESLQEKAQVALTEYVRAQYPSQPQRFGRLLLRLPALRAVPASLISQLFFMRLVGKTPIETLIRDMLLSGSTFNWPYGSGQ

ERα = molecular target: T2, ERα (Homo sapiens, UniProt P03372); test: Counterscreening, Firefly signal with ERα transient transfection (Firefly_ERa); details: ERα transient transfection, 10 μM
T2 construct: expressed in transfected cells
T2 sequence (P03372 1-595): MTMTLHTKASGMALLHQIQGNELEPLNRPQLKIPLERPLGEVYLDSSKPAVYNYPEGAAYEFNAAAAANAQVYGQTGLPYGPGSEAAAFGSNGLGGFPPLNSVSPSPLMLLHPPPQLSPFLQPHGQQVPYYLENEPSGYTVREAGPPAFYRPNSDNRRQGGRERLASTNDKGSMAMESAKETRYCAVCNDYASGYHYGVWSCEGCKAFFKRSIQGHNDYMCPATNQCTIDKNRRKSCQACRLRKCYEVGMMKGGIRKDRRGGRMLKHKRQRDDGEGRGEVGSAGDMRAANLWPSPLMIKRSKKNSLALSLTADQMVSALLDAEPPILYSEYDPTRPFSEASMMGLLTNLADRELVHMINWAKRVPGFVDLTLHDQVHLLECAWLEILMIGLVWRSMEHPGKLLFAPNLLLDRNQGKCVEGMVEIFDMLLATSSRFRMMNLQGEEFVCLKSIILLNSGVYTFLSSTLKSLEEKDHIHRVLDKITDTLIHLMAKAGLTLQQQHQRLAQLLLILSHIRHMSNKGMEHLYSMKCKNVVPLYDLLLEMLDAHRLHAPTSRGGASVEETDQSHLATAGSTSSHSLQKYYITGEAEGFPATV
Procedure: The methodology for screening candidate compounds as NR2F6 agonists was as follows: For primary screening, hit criteria was ACT %>DMSO control+5*SD (DSO control) at 10 μM, or any compound with S/B>2. For rescreening, hit criteria was ACT %>DMSO control+3*SD (DSO control) in each replicate at 10 μM. For counterscreening, hit criteria was mean ACT<DMSO control+3*SD (DMSO control) with ERα transient transfection in duplicate at 10 μM.

Renilla_ERa = test: Renilla signal in ERα counterscreen (Renilla_ERa); details: ERα transient transfection, 10 μM
Renilla = Renilla signal in NR2F6 agonist screening, cmpd/DMSO; details: Renilla
HEK293 pGL4 = test: Firefly_pGL signal, cmpd/DMSO (pGL4 control cells); details: Homo sapiens, HEK293, Table 14, read-out: Firefly pGL4, cmpd/DMSO (mean)
[1] = repeat 1, read-out: Renilla_ERa, cmpd/DMSO repeat 1
[2] = repeat 2, read-out: Renilla_ERa, cmpd/DMSO repeat 2
[3] = first set screening, 10 μM, repeat 1, read-out: Renilla, cmpd/DMSO repeat 1
[4] = first set screening, 10 μM, repeat 2, read-out: Renilla, cmpd/DMSO repeat 2
[5] = Table 14, read-out: Renilla F4, cmpd/DMSO (mean)
[6] = Table 14, 10 uM, read-out: Renilla F4, cmpd/DMSO (mean)

Compound | Firefly, cmpd/DMSO repeat 1 (NR2F6) | Firefly, cmpd/DMSO repeat 2 (NR2F6) | Firefly_ERa, cmpd/DMSO repeat 1 (ERα) | Firefly_ERa, cmpd/DMSO repeat 2 (ERα) | fold induction at 10 µM (Renilla_ERa; [1]) | fold induction at 10 µM (Renilla_ERa; [2]) | fold induction at 10 µM (Renilla; [3]) | fold induction at 10 µM (Renilla; [4]) | Firefly F4, cmpd/DMSO (mean) (NR2F6; 2 uM) | Firefly F4, cmpd/DMSO (mean) (NR2F6; 10 uM) | Firefly F4, cmpd/DMSO (mean) (NR2F6; 40 uM) | fold induction at 2 µM (HEK293 pGL4) | fold induction at 10 µM (HEK293 pGL4) | fold induction at 40 µM (HEK293 pGL4) | fold induction at 2 µM (Renilla; [5]) | fold induction at 10 µM (Renilla; [6]) | fold induction at 40 µM (Renilla; [5])
COc1ccc(-c2cc(C(F)(F)F)nc(S(=O)(=O)CCCC(=O)Nc3sc4c(c3C(N)=O)CCCC4)n2)cc1OC [Compound C2] | 2.7 | 2.2 | 1.0 | 0.8 | 1.7 | 1.6 | 6 | 5.3 | – | – | – | – | – | – | – | – | –
Cc1ccc(-c2nc3ccccc3c(=O)[nH]2)cc1 [Compound C3] | 2.0 | 2.0 | 1.8 | 1.9 | 1.1 | 1.2 | 1.6 | 1.2 | 1.5 | 1.1 | 0.9 | 1.1 | 1.3 | 1 | 1 | 0.9 | 0.9
CCOC(=O)c1cnn2c(-c3ccc(Cl)cc3)ccnc12 [Compound C4] | 2.5 | 2.5 | 1.6 | 1.7 | 1.1 | 1.2 | 1.6 | 1.5 | 1.1 | 0.8 | 0.7 | 1 | 0.9 | 1.3 | 0.6 | 0.5 | 0.5
COCCNC(=O)c1ccc2c(c1)N=C(C)c1cc(C)ccc1S2 [Compound C8] | 2.1 | 2.8 | 1.2 | 1.2 | 1 | 1.1 | 3.4 | 3.1 | – | – | – | – | – | – | – | – | –
CNC(=O)c1ccc2c(c1)N=C(C)c1cc(C)ccc1S2 [Compound C9] | 2.7 | 1.9 | 2.5 | 2.4 | 0.9 | 1 | 2.4 | 2.5 | – | – | – | – | – | – | – | – | –
COc1cc(Nc2c3c(nc4ccc(Cl)cc24)CCC3)cc(OC)c1OC [Compound C10] | 2.1 | 2.6 | 1.0 | 1.3 | 0.7 | 0.8 | 3.1 | 1.6 | – | – | – | – | – | – | – | – | –
CCn1c(=O)c2cc(C(=O)Nc3ccc4c(C)cc(=O)oc4c3)sc2c2ccccc21 [Compound C16] | 2.7 | 2.3 | 1.0 | 0.9 | 0.9 | 1.1 | 3.9 | 3.2 | – | – | – | – | – | – | – | – | –
